The values that follow come from patent publication US20050282840A1, “Methods of modulating neurotrophin-mediated activity” (PainCeptor Pharma Corporation, priority 2004, published 2005).

The target of experiment [1] is T1, p75^NTR receptors (PC12 cells) (Rattus norvegicus, UniProt P07174).
T1 construct: endogenous in cells; host or cells: PC12 cells
T1 sequence (P07174 30-425): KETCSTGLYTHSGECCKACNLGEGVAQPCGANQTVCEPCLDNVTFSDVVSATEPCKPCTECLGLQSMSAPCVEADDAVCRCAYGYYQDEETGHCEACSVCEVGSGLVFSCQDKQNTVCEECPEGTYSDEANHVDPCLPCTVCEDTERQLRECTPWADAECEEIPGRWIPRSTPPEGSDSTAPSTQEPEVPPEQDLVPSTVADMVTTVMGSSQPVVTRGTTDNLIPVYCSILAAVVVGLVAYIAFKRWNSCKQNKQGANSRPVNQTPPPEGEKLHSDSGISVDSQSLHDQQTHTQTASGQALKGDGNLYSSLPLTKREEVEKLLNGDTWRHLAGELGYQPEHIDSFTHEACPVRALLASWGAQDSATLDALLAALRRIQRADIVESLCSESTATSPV
T1 sequence (P23560 129-247 partner): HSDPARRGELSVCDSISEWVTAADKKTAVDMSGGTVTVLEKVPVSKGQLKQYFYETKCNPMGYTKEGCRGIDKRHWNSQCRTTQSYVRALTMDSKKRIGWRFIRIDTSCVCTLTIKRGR
Briefly: Basic screening assay: binding of 125I-BDNF to PC12 cells. As to conditions: read-out: BDNF Activity % Maximal Binding. In outline:
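4×10^6 PC12 cells incubated 2 h at 4° C, rotating, with 0.5 nM ^125I-BDNF (final) and compound at 50 μM, in duplicate or more. Bound ligand separated through 10% glycerol by centrifugation and counted by gamma counter; specific binding is Bmax minus NSB; inhibitors followed up for EC50.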

The test system of experiment [2] is p75^NTR receptors (PC12 cells). The experiment can be described thus: Basic screening assay: binding of 125I-NGF to PC12 cells. The following applies: test compound 50 μM, 0.5 nM 125I-NGF, PC12 cells, 2 h at 4° C., specific binding as percent of control. In outline:
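PC12 cells (4×10^6) incubated 2 h at 4° C with 0.5 nM 125I-NGF and test compound at 50 μM, rotating. Bound tracer pelleted through 10% glycerol and gamma-counted; specific binding expressed as percent of control after NSB subtraction.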

[3] abbreviates: Table 4, test compound 50 μM, 0.5 nM 125I-BDNF, PC12 cells, 2 h at 4° C., specific binding as percent of control.
Setting [4] is: Table 2, test compound 50 μM, 0.5 nM 125I-BDNF, PC12 cells, 2 h at 4° C., specific binding as percent of control.
The mark [5] stands for this setting: Table 1, test compound 50 μM, 0.5 nM 125I-BDNF, PC12 cells, 2 h at 4° C., specific binding as percent of control.

Read-outs that look alike come from different tables or passages of the source. Where only a bound is given, the exact number is not on record here.

Regarding `O=C1NC(=O)C(=Cc2ccc(-c3cccc([N+](=O)[O-])c3)o2)S1` [Compound 87, 5-[5-(3-Nitrophenyl)furan-2-ylmethylene]-thiazolidine-2,4-dione], the activity at 50 µM in experiment [1] (setting [3]) is over 50%. Also, the “NGF Activity % Maximal Binding” value in experiment [2] (Table 4) was “* (50 < *)”.
Turning to `COC(=O)c1cccc(-c2ccc(/C=C3/SC(=S)N(CC(=O)O)C3=O)o2)c1` [Compound 69, 3-[5-(3-Carboxymethyl-4-oxo-2-thioxo-thiazolidin-5-ylidenemethyl)furan-2-yl]benzoic acid methyl ester], in experiment [1] (setting [4]), the activity at 50 µM was in the range of 0 to 10%. The “NGF Activity % Maximal Binding” value in experiment [2] (Table 2) is “XX (30 < XX < 40)”.
For `Cc1ccc([N+](=O)[O-])cc1-c1ccc(/C=C2/SC(=O)NC2=O)o1` [Compound 88, 5-[5-(2-Methyl-5-nitrophenyl)furan-2-ylmethylene]-thiazolidine-2,4-dione], the activity at 50 µM in experiment [1] (setting [3]) was over 50%. The “NGF Activity % Maximal Binding” value in experiment [2] (Table 4) is “* (50 < *)”.
For the compound `O=C1NC(=S)N/C1=C/c1ccc(-c2ccc(Cl)c(C(=O)O)c2)o1` [Compound 85, 2-Chloro-5-[5-(5-oxo-2-thioxo-imidazolidin-4-ylidenemethyl)furan-2-yl]benzoic_acid], the activity at 50 µM in experiment [1] (Table 3, test compound 50 μM, 0.5 nM 125I-BDNF, PC12 cells, 2 h at 4° C., specific binding as percent of control) is over 50%. Besides, the “NGF Activity % Maximal Binding” value in experiment [2] (Table 3) is reported as “X (40 < X < 50)”.
Take `CN1C(=O)/C(=C/c2ccc(-c3ccc(S(N)(=O)=O)cc3)o2)SC1=S` [Compound 45, 4-[5-(3-Methyl-4-oxo-2-thioxo-thiazolidin-5-ylidenemethyl)furan-2-yl]benzenesulfonamide]: the activity at 50 µM in experiment [1] (setting [5]) was in the range of 30 to 40%. Further, the “NGF Activity % Maximal Binding” value in experiment [2] (Table 1) was “* (50 < *)”.
For `COC(=O)CN1C(=O)S/C(=C/c2ccc(-c3ccc(C(=O)O)c(Cl)c3)o2)C1=O` [Compound 67, 2-Chloro-4-[5-(3-methoxycarbonylmethyl-2,4-dioxo-thiazolidin-5-ylidenemethyl)furan-2-yl]benzoic acid], the activity at 50 µM in experiment [1] (setting [4]) fell in the range of 0 to 10%. The “NGF Activity % Maximal Binding” value in experiment [2] (Table 2) is given as “XX (30 < XX < 40)”.
In the case of `O=C(O)c1ccc(-c2ccc(/C=C3/NC(=O)N(c4cccc(Cl)c4)C3=O)o2)cc1Cl` [Compound 36, 2-Chloro-4-{5-[1-(3-chlorophenyl)-2,5-dioxo-imidazolidin-4-ylidenemethyl]furan-2-yl}benzoic acid], the activity at 50 µM in experiment [1] (setting [5]) was in the range of 10 to 20%. The “NGF Activity % Maximal Binding” value in experiment [2] (Table 1) is on record as “* (50 < *)”.
Consider `CN1C(=O)NC(=O)C(=Cc2ccc(-c3ccc(C(=O)O)cc3)o2)C1=O` [Compound 17, 4-[5-(1-Methyl-2,4,6-trioxo-tetrahydro-pyrimidin-5-ylidenemethyl)furan-2-yl]benzoic acid], for which, in experiment [1], the activity at 50 µM was 0 to 10%. For the same compound, the “NGF Activity % Maximal Binding” value in experiment [2] (Table 1) is listed as “* (50 < *)”.
The like results for `COC(=O)c1ccc(-c2ccc(C=C3C(=O)NC(=S)NC3=O)o2)cc1` [Compound 19, 4-[5-(4,6-Dioxo-2-thioxo-tetrahydro-pyrimidin-5-ylidenemethyl)furan-2-yl]benzoic acid methyl ester] were, in that order, 0 to 10% and “* (50 < *)”.
The like results for `O=C1NC(=O)C(=Cc2ccc(-c3ccc([N+](=O)[O-])cc3Cl)o2)C(=O)N1` [Compound 11, 5-[5-(2-Chloro-4-nitrophenyl)furan-2-ylmethylene]-pyrimidine-2,4,6-trione] were, in that order, 0 to 10% and “* (50 < *)”.
Consider `Cc1cc([N+](=O)[O-])ccc1-c1ccc(C=C2SC(=O)NC2=O)o1` [Compound 92, 5-[5-(2-Methyl-4-nitrophenyl)furan-2-ylmethylene]-thiazolidine-2,4-dione], for which the activity at 50 µM in experiment [1] (setting [3]) was over 50%. Further, the “NGF Activity % Maximal Binding” value in experiment [2] (Table 4) is listed as “* (50 < *)”.
In the case of `CCCSC1=NC(=Cc2ccc(-c3ccc([N+](=O)[O-])cc3Cl)o2)C(=O)S1` [Compound 62, 4-[5-(2-Chloro-4-nitrophenyl)furan-2-ylmethylene]-2-propylsulfanyl-4H-thiazol-5-one], the activity at 50 µM in experiment [1] (setting [5]) was 40 to 50%. In addition, the “NGF Activity % Maximal Binding” value in experiment [2] (Table 1) is reported as “* (50 < *)”.
On to `O=C1NC(=S)N(c2ccc(F)cc2)C(=O)/C1=C\c1ccc(-c2cccc([N+](=O)[O-])c2)o1` [Compound 70, 1-(4-Fluorophenyl)-5-[5-(3-nitrophenyl)furan-2-ylmethylene]-2-thioxo-dihydro-pyrimidine-4,6-dione], for which the activity at 50 µM in experiment [1] was in the range of 0 to 10%. For the same compound, in experiment [2] (Table 2), the “NGF Activity % Maximal Binding” value is on record as “X (40 < X < 50)”.
Turning to `O=C1NC(=O)N(Cc2ccccc2)C(=O)/C1=C/c1ccc(-c2cccc(C(=O)O)c2)o1` [Compound 122, 3-[5-(1-benzyl-2,4,6-trioxo-tetrahydro-pyrimidin-5-ylidenemethyl)furan-2-yl]benzoic acid], the activity at 50 µM in experiment [1] is over 50%. The “NGF Activity % Maximal Binding” value in experiment [2] (Table 4) is reported as “* (50 < *)”.
Consider `CCN1C(=O)/C(=C/c2ccc(-c3ccc([N+](=O)[O-])cc3)o2)NC1=S` [Compound 55, 3-Ethyl-5-[5-(4-nitrophenyl)furan-2-ylmethylene]-2-thioxo-imidazolidin-4-one], for which the activity at 50 µM in experiment [1] (setting [5]) fell in the range of 30 to 40%. In addition, the “NGF Activity % Maximal Binding” value in experiment [2] (Table 1) is “* (50 < *)”.
The matching figures for `COC(=O)C(C)N1C(=O)S/C(=C/c2ccc(-c3ccc(C)c([N+](=O)[O-])c3)o2)C1=O` (stereo not shown) [Compound 64, 2-{5-[5-(4-Methyl-3-nitrophenyl)furan-2-ylmethylene]-2,4-dioxo-thiazolidin-3-yl}-propionic acid methyl ester]: 40 to 50% and “* (50 < *)”.
Take `Cc1ccc(-c2ccc(/C=C3/SC(=S)N(CC(=O)O)C3=O)o2)cc1[N+](=O)[O-]` [Compound 14, {5-[5-(4-Methyl-3-nitrophenyl)furan-2-ylmethylene]-4-oxo-2-thioxo-thiazolidin-3-yl}-acetic acid]: in experiment [1] (setting [5]), the activity at 50 µM lay in the range of 0 to 10%. In experiment [2] (Table 1), the “NGF Activity % Maximal Binding” value is “* (50 < *)”.
The like results for `COC(=O)c1ccc(-c2ccc(/C=C3/NC(=O)N(Cc4ccc(F)cc4)C3=O)o2)c(C)c1` [Compound 46, 4-{5-[1-(4-Fluorobenzyl)-2,5-dioxo-imidazolidin-4-ylidenemethyl]furan-2-yl}-3-methylbenzoic acid methyl ester] were, in that order, 30 to 40% and “* (50 < *)”.
The like results for `COc1ccc(-c2ccc(/C=C3\SC(=S)NC3=O)o2)cc1[N+](=O)[O-]` [Compound 20, 5-[5-(4-Methoxy-3-nitrophenyl)furan-2-ylmethylene]-2-thioxo-thiazolidin-4-one] were, in that order, 0 to 10% and “* (50 < *)”.
`CN1C(=O)NC(=O)C(=Cc2ccc(-c3ccc([N+](=O)[O-])cc3)o2)C1=O` [Compound 39, 1-Methyl-5-[5-(4-nitrophenyl)furan-2-ylmethylene]-pyrimidine-2,4,6-trione]: in experiment [1], the activity at 50 µM fell in the range of 20 to 30%. In experiment [2] (Table 1), the “NGF Activity % Maximal Binding” value is “* (50 < *)”.
With `O=C1NN(c2ccc(F)cc2)C(=O)C1=Cc1ccc(-c2ccc([N+](=O)[O-])cc2)o1` [Compound 119, 1-(4-Fluorophenyl)-4-[5-(4-nitrophenyl)furan-2-ylmethylene]-pyrazolidine-3,5-dione], the activity at 50 µM in experiment [1] (setting [3]) was over 50%. Further, in experiment [2] (Table 4), the “NGF Activity % Maximal Binding” value is “* (50 < *)”.
The matching figures for `Cc1cc([N+](=O)[O-])ccc1-c1ccc(/C=C2\NC(=O)N(Cc3ccccc3F)C2=O)o1` [Compound 131, 3-(2-Fluorobenzyl)-5-[5-(2-methyl-4-nitrophenyl)furan-2-ylmethylene]-imidazolidine-2,4-dione]: over 50% and “* (50 < *)”.
The matching figures for `COc1ccc([N+](=O)[O-])cc1-c1ccc(/C=C2/NC(=O)N(c3ccccc3)C2=O)o1` [Compound 123, 5-[5-(2-Methoxy-5-nitrophenyl)furan-2-ylmethylene]-3-phenyl-imidazolidine-2,4-dione]: over 50% and “* (50 < *)”.
